Values quoted from earlier work in patent publication US20160303264A1, “LIPOSOMES USEFUL FOR NON-INVASIVE IMAGING AND DRUG DELIVERY” (MERRIMACK PHARMACEUTICALS, INC., priority 2013, published 2016).

Conditions: human studies

SMILES: CN=C([S-])N/N=C(C)/C(C)=N/NC([S-])=NC.[64Cu+2] [^64Cu-ATSM]
- adverse events or clinically detectable pharmacologic effects: No adverse events or clinically detectable pharmacologic effects
- changes in vital signs or laboratory test results after injection: no clinically significant changes
